Experimental data published in US11939344B2, “Spirocyclic compounds” (ASTRAZENECA AB, priority 2021, dated 2024).

What was measured:
HCT116 KO-MTAP cells = test: PRMT5 cell SDMA assay, MTAP KO cells; format: cell-based; settings: Homo sapiens, HCT-116; HCT116 MTAP KO, 48 hours; read-out: Cell SDMA IC50 (μM) (MTAP KO)
HCT116 WT cells = test: PRMT5 cell SDMA assay, MTAP WT cells; format: cell-based; settings: Homo sapiens, HCT-116; HCT116 MTAP WT, 48 hours; read-out: Cell SDMA IC50 (μM) (MTAP WT)

Compound | IC50 (HCT116 KO-MTAP cells) | IC50 (HCT116 WT cells)
Nc1nc2cc(CN3C(=O)c4cc(F)ccc4[C@]34CCN(CC3(CF)CC3)C4=O)[nH]c2cc1F [Example 9, (S)-2-((5-Amino-6-fluoro-1H-pyrrolo[3,2-b]pyridin-2-yl)methyl)-5-fluoro-1′-((1-(fluoromethyl)cyclopropyl)methyl)spiro[isoindoline-1,3′-pyrrolidine]-2′,3-dione] | 0.015 µM | 0.53 µM
Nc1nc2cc(CN3C(=O)c4cc(F)ccc4[C@]34CCN(Cc3cc(F)ccc3F)C4=O)[nH]c2cc1F [Example 7, (S)-2-((5-Amino-6-fluoro-1H-pyrrolo[3,2-b]pyridin-2-yl)methyl)-1′-(2,5-difluorobenzyl)-5-fluorospiro[isoindoline-1,3′-pyrrolidine]-2′,3-dione] | 0.0017 µM | 0.036 µM
Nc1nc2cc(CN3C(=O)c4cc(F)ccc4[C@]34CCN(Cc3nc5ccccc5o3)C4=O)[nH]c2cc1F [Example 16, (S)-2-((5-Amino-6-fluoro-1H-pyrrolo[3,2-b]pyridin-2-yl)methyl)-1′-(benzo[d]oxazol-2-ylmethyl)-5-fluorospiro[isoindoline-1,3′-pyrrolidine]-2′,3-dione] | 0.0051 µM | 0.23 µM
Nc1nc2cc(CN3C(=O)c4ccncc4[C@]34CCN(Cc3ccc(F)cc3)C4=O)[nH]c2cc1F (single isomer, unassigned) [Example 25] | 0.014 µM | 0.44 µM
C[C@@H](N1CC[C@@]2(C1=O)c1ccc(F)cc1C(=O)N2Cc1cc2nc(N)c(F)cc2[nH]1)C1(C)CC1 (relative stereo) [Example 19, (S)-2-((5-Amino-6-fluoro-1H-pyrrolo[3,2-b]pyridin-2-yl)methyl)-5-fluoro-1′-((R*)-1-(1-methylcyclopropyl)ethyl)spiro[isoindoline-1,3′-pyrrolidine]-2′,3-dione] | 0.032 µM | 0.86 µM
COc1cc(F)cc2c1[C@]1(CCN(C)C1=O)N(Cc1cc3nc(N)c(F)cc3[nH]1)C2=O [Example 24, (S)-2-((5-Amino-6-fluoro-1H-pyrrolo[3,2-b]pyridin-2-yl)methyl)-5-fluoro-7-methoxy-1′-methylspiro[isoindoline-1,3′-pyrrolidine]-2′,3-dione] | 0.032 µM | 1.2 µM
Nc1nc2cc(CN3C(=O)c4cc(F)ccc4[C@]34CCN(Cc3cccc(-n5nccn5)c3)C4=O)[nH]c2cc1F [Example 6, (S)-1′-(3-(2H-1,2,3-Triazol-2-yl)benzyl)-2-((5-amino-6-fluoro-1H-pyrrolo[3,2-b]pyridin-2-yl)methyl)-5-fluorospiro[isoindoline-1,3′-pyrrolidine]-2′,3-dione] | 0.0017 µM | 0.054 µM
Nc1nc2cc(CN3C(=O)c4c(Cl)cccc4[C@]34CCN(Cc3ccc(F)cc3)C4=O)[nH]c2cc1F [Example 21, (S)-2-((5-Amino-6-fluoro-1H-pyrrolo[3,2-b]pyridin-2-yl)methyl)-4-chloro-1′-(4-fluorobenzyl)spiro[isoindoline-1,3′-pyrrolidine]-2′,3-dione] | 0.086 µM | 3.2 µM
Nc1nc2cc(CN3C(=O)c4cc(F)ccc4[C@]34CCN(CCOC(F)F)C4=O)[nH]c2cc1F [Example 11, (S)-2-((5-Amino-6-fluoro-1H-pyrrolo[3,2-b]pyridin-2-yl)methyl)-1′-(2-(difluoromethoxy)ethyl)-5-fluorospiro[isoindoline-1,3′-pyrrolidine]-2′,3-dione] | 0.02 µM | 0.81 µM
C[C@H]1C[C@@]2(C(=O)N1C)c1ccc(F)cc1C(=O)N2Cc1cc2nc(N)c(F)cc2[nH]1 (single isomer, unassigned) [Example 29] | 0.018 µM | 0.81 µM

Continued by falling IC50 (HCT116 KO-MTAP cells), values first:

IC50 (HCT116 KO-MTAP cells) | IC50 (HCT116 WT cells) | Compound
0.16 µM | 12 µM | Cc1cc(F)cc2c1[C@]1(CCN(C)C1=O)N(Cc1cc3nc(N)c(F)cc3[nH]1)C2=O [Example 23, (S)-2-((5-Amino-6-fluoro-1H-pyrrolo[3,2-b]pyridin-2-yl)methyl)-5-fluoro-1′,7-dimethylspiro[isoindoline-1,3′-pyrrolidine]-2′,3-dione]
0.011 µM | 0.51 µM | Nc1nc2cc(CN3C(=O)c4cnccc4[C@]34CCN(Cc3ccc(F)cc3)C4=O)[nH]c2cc1F (single isomer, unassigned) [Example 22]
0.0088 µM | 0.43 µM | Nc1nc2cc(CN3C(=O)c4cc(F)ccc4[C@]34CCN(Cc3ncccc3F)C4=O)[nH]c2cc1F [Example 12, (S)-2-((5-Amino-6-fluoro-1H-pyrrolo[3,2-b]pyridin-2-yl)methyl)-5-fluoro-1′-((3-fluoropyridin-2-yl)methyl)spiro[isoindoline-1,3′-pyrrolidine]-2′,3-dione]
0.0084 µM | 0.34 µM | Nc1nc2cc(CN3C(=O)c4cc(F)ccc4[C@]34CCN(Cc3ccno3)C4=O)[nH]c2cc1F [Example 13, (S)-2-((5-Amino-6-fluoro-1H-pyrrolo[3,2-b]pyridin-2-yl)methyl)-5-fluoro-1′-(isoxazol-5-ylmethyl)spiro[isoindoline-1,3′-pyrrolidine]-2′,3-dione]
0.0068 µM | 0.42 µM | Nc1nc2cc(CN3C(=O)c4cc(F)ccc4[C@]34CCN(CCOc3ccc(F)cc3)C4=O)[nH]c2cc1F [Example 17, (S)-2-((5-Amino-6-fluoro-1H-pyrrolo[3,2-b]pyridin-2-yl)methyl)-5-fluoro-1′-(2-(4-fluorophenoxy)ethyl)spiro[isoindoline-1,3′-pyrrolidine]-2′,3-dione]
0.0066 µM | 0.37 µM | Cc1ncsc1CCN1CC[C@@]2(C1=O)c1ccc(F)cc1C(=O)N2Cc1cc2nc(N)c(F)cc2[nH]1 [Example 18, (S)-2-((5-Amino-6-fluoro-1H-pyrrolo[3,2-b]pyridin-2-yl)methyl)-5-fluoro-1′-(2-(4-methylthiazol-5-yl)ethyl)spiro[isoindoline-1,3′-pyrrolidine]-2′,3-dione]
0.006 µM | 0.088 µM | Nc1nc2cc(CN3C(=O)c4cc(F)ccc4[C@]34CCN(Cc3cc(C(F)(F)F)cnn3)C4=O)[nH]c2cc1F [Example 14, (S)-2-((5-Amino-6-fluoro-1H-pyrrolo[3,2-b]pyridin-2-yl)methyl)-5-fluoro-1′-((5-(trifluoromethyl)pyridazin-3-yl)methyl)spiro[isoindoline-1,3′-pyrrolidine]-2′,3-dione]
0.0057 µM | 0.17 µM | N#Cc1ccc(CN2CC[C@@]3(C2=O)c2ccc(F)cc2C(=O)N3Cc2cc3nc(N)c(F)cc3[nH]2)cc1F [Example 5, (S)-4-((2-((5-Amino-6-fluoro-1H-pyrrolo[3,2-b]pyridin-2-yl)methyl)-5-fluoro-2′,3-dioxospiro[isoindoline-1,3′-pyrrolidin]-1′-yl)methyl)-2-fluorobenzonitrile]
0.0036 µM | 0.12 µM | Cn1ncc2cc(CN3CC[C@@]4(C3=O)c3ccc(F)cc3C(=O)N4Cc3cc4nc(N)c(F)cc4[nH]3)ccc21 [Example 15, (S)-2-((5-Amino-6-fluoro-1H-pyrrolo[3,2-b]pyridin-2-yl)methyl)-5-fluoro-1′-((1-methyl-1H-indazol-5-yl)methyl)spiro[isoindoline-1,3′-pyrrolidine]-2′,3-dione]
0.0029 µM | 0.16 µM | Nc1nc2cc(CN3C(=O)c4cc(F)ccc4[C@]34CCN(CC#CC3CC3)C4=O)[nH]c2cc1F [Example 20, (S)-2-((5-Amino-6-fluoro-1H-pyrrolo[3,2-b]pyridin-2-yl)methyl)-1′-(3-cyclopropylprop-2-yn-1-yl)-5-fluorospiro[isoindoline-1,3′-pyrrolidine]-2′,3-dione]
